Measured values reported in patent publication US8372819B2, “Methods and compositions for targeting skip” (Salk Institute for Biological Studies, priority 2010, dated 2013).
Where a SMILES comes first, the peptide text is derived from it. The star is where a group is joined. Cbz = O=C(OCc1ccccc1)*

Legend:
[1] = system: SKIP protein; test: Immunoblot of endogenous SKIP protein in 293 cells exposed to FP; assay type: cell-based; settings: 293 cells exposed for 18 hr
Description: (§1) SKIP expression is blocked by Flavopiridol (FP), a CDK inhibitor currently in clinical trials. […] SKIP protein levels decline starting at lOnM FP, though mRNA levels are unaffected at 10 nM FP.

[2] = system: SKIP mRNA; test: SKIP mRNA levels in 293 cells exposed to FP; assay type: cell-based; settings: 10 nM FP
Description: as §1

[3] = system: Ser2-phosphorylated RNAPII; test: Immunoblot of Ser2-phosphorylated RNAPII in response to FP; assay type: cell-based
Description: FIG. 8. Immunoblot detection of SKIP and Ser2-phosphorylated RNAPII in response to increasing levels of flavopiridol.
In contrast, levels of Ser2-phosphorylated RNAPII decline with exposure to much higher concentrations of FP (>100 nM).

[4] = system: p21; test: Immunoblot of p21 protein in U2OS cells; assay type: cell-based, human; settings: U2OS cells transfected with control or SKIP siRNA, proteasome inhibitor treatment
Text: As observed for many essential proteins, depletion of SKIP by siRNA increases endogenous p53 levels. […] To assess whether SKIP plays a role in the normal p53 stress response, endogenous p53 was induced in two human cancer cell lines, U2OS (osteosarcoma) and HCT116 (colon cancer), using the chemotherapeutic DNA damage agents etoposide (U2OS cells) or doxorubicin (HCT116 cells). […] Consequently, PUMA expression was elevated in SKIP-depleted cells, and increased further with DNA damage (FIG. 1). In contrast, both basal and stress-induced p21 mRNA levels decreased in SKIP-depleted HCT116 or U2OS cells, compared with cells treated with a control siRNA, accompanied by a strong block to p21 protein expression, as detected by immunoblot (FIG. 1A, 1B, lanes 1-3 and 4-6). Similar results were obtained using two different SKIP siRNAs.
To determine whether SKIP might also affect p21 protein stability, the rate of p21 protein turnover was measured in SKIP knockdown cells in the absence of stress. Forty-eight hours after transfection with control or SKIP siRNA, U2OS cells were treated with cycloheximide (CHX) to prevent new protein synthesis, and the decay of endogenous p21 protein was measured.

[5] = system: p21 mRNA; test: TGF-β induction of p21 mRNA in MDA-MB-231 cells (qRT-PCR); assay type: cell-based, human; settings: TGF-β 5 ng/mL
Description: FIG. 5. SKIP is required for Nutlin and TGF-β-induced p21 gene expression. (A, left) qRT-PCR analysis of p21 and PUMA mRNA levels. U2OS cells were transfected with control or SKIP siRNA for 48 h, and incubated in the presence or absence of Nutlin (10 μM) for 18 h. (Right, lanes 1-4) Protein lysates were subjected to immunoblot analysis. (B) qRT-PCR analysis of p21 mRNA levels. MDA-MB-231 cells were transfected with control or SKIP siRNA for 48 h, followed by incubation in the presence or absence of TGF-β (5 ng/mL) for the indicated times. (C, lanes 1-6) Immunoblot analysis of SKIP, Smad2/3, p53, p21, or GAPDH in cells transfected with control or SKIP siRNA for 48 h, followed by treatment with TGF-β (5 ng/mL) for the indicated times. (D, left) qRT-PCR analysis of p21 mRNA levels in HCT 116 p53^−/− cells, H1299 cells, HeLa cells and MDA-MB-231 cells transfected with control or SKIP siRNA for 48 h. (Right, lanes 1-8) Protein lysates were subjected to immunoblot analysis. All of the mRNA expression levels were normalized to GAPDH mRNA, and are represented as fold increase or decrease over untreated cells. Error bars represent the standard deviation obtained from three independent experiments. […]

[6] = molecular target: T1, SKIP (Ski-interacting protein), endogenous (human, UniProt Q13573 2-536); test: GST pull-down from HCT116 nuclear extract, Western blot
T1 construct: Endogenous protein of human HCT116 nuclear extract (pull-downs) or U2OS whole-cell lysate (co-IP); also called SNW1; NCoA62
T1 sequence: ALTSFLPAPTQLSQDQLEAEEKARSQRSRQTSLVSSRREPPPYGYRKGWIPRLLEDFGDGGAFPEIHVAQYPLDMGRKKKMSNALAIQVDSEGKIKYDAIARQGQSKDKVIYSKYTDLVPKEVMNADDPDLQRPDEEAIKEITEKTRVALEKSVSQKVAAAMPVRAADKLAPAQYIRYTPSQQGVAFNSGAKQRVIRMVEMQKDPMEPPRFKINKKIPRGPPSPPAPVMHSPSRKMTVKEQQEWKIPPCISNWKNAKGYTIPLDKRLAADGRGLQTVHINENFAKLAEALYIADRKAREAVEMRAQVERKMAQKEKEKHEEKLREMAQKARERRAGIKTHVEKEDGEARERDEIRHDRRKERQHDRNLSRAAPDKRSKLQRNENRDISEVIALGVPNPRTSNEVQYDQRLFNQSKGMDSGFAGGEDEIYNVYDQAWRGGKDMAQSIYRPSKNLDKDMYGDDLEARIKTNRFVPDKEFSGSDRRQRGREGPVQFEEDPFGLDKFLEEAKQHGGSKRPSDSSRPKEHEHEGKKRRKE
Description: SST fusion constructs were expressed in BL21 *Escherichia coli* cells, and crude bacterial lysates were prepared by sonication in GST lysis buffer (25 mM Tris at pH 7.5, 150 mM NaCl, 1 mM EDTA, protease inhibitor). Approximately 10 μg of the appropriate GST fusion proteins was incubated with precleared HCT116 nuclear extract for 2 h at 4° C. The binding reaction was then added with 30 μL of glutathione-Sepharose beads and mixed for another 1 h at 4° C. The beads were washed four times with the above GST lysis buffer, separated on a 10% SDS-PACE, and analyzed by Western blotting.
(§2) Figure 4: FIG. 4. SKIP associates with unspliced p21 mRNA and recruits U2AF65. (A) Immunoblot analysis of the interaction between SKIP, U2AF35, and U2AF65 in GST pull-down experiments from HCT116 cell nuclear extract. (B) Total proteins were extracted from U2OS cells for coimmunoprecipitation. Immunoprecipitates were examined by Western blot using antibodies against SKIP, U2AF35, or U2AF65. (C) ChIP analysis of U2AF65 binding on the p21 and PUMA genes. U2OS cells were transfected with control or SKIP siRNA for 48 h, followed by treatment with vehicle or etoposide (20 μM) for 6 h. Protein extracts were immunoprecipitated with antibodies against U2AF65. ChIP-enriched DNA was quantified by qPCR with the indicated primers in FIG. 2A. […] Immunoprecipitated p21 mRNA was detected using qRT-PCR with the indicated primers.

[7] = molecular target: T1, SKIP (Ski-interacting protein), …; test: co-immunoprecipitation with SKIP antibody from U2OS whole-cell lysate, Western blot
Description: The immune complexes were subjected to SDS-PAGE followed by immunoblotting with the secondary antibody. For RNA-IP experiments, cells were lysed in ice-cold NET-2 buffer (50 mM Tris-HCL at pH 7.4, 300 mM NaCl, 0.5% [vol/vol] Nonidet P-40, 1× complete protease inhibitors [Roche], 100 U/mL RNase OUT [Invitrogen]). The lysate was incubated with the indicated antibodies or control normal rabbit/mouse IgG on a rotator overnight at 4° C., followed by addition of protein A/G agarose (Invitrogen) for 2 h at 4° C. Beads were then washed four times using the NET-2 buffer. Immunoprecipitated RNA was then extracted using Trizol and reverse-transcribed with random hexamers. The resulting cDNA was analyzed with the indicated primer sets (Table 5).
as §2, with “U2OS cells were transfected with control or SKIP siRNA for 48 h, followed by treatment with vehicle or etoposide (20 μM) for 6 h. Protein extracts were immunoprecipitated with antibodies against U2AF65.” left out

Molecule: CN1CC[C@H](c2c(O)cc(O)c3c(=O)cc(-c4ccccc4Cl)oc23)[C@H](O)C1 [FP, Flavopiridol]
- FP concentration at which SKIP protein levels start to decline [1]: lO
- SKIP mRNA levels [2]: unaffected
- FP concentration at which levels of Ser2-phosphorylated RNAPII decline [3]: > 100 nM

Molecule: CC(C)C[C@@H](C=O)NC(=O)[C@H](CC(C)C)NC(=O)[C@H](CC(C)C)NC(=O)OCc1ccccc1 [MG132] (Cbz-Leu-Leu-Leu-aldehyde)
- p21 protein levels [4]: elevated p21 protein levels

Molecule: TGF-β
- time of peak p21 mRNA levels after induction [5]: 4 h

B1: GST-U2AF35 (other, UniProt Q01081 1-240, looked up)
chain: MAEYLASIFGTEKDKVNCSFYFKIGACRHGDRCSRLHNKPTFSQTIALLNIYRNPQNSSQSADGLRCAVSDVEMQEHYDEFFEEVFTEMEEKYGEVEEMNVCDNLGDHLVGNVYVKFRREEDAEKAVIDLNNRWFNGQPIHAELSPVTDFREACCRQYEMGECTRGGFCNFMHLKPISRELRRELYGRRRKKHRSRSRSRERRSRSRDRGRGGGGGGGGGGGGRERDRRRSRDRERSGRF
notes: not shown: glutathione-S-transferase (GST) fusion tag
- binding result [6]: no binding

B2: U2AF35 (other, human, UniProt Q01081 2-240, looked up)
chain: AEYLASIFGTEKDKVNCSFYFKIGACRHGDRCSRLHNKPTFSQTIALLNIYRNPQNSSQSADGLRCAVSDVEMQEHYDEFFEEVFTEMEEKYGEVEEMNVCDNLGDHLVGNVYVKFRREEDAEKAVIDLNNRWFNGQPIHAELSPVTDFREACCRQYEMGECTRGGFCNFMHLKPISRELRRELYGRRRKKHRSRSRSRERRSRSRDRGRGGGGGGGGGGGGRERDRRRSRDRERSGRF
notes: Endogenous protein from human cancer cell lines; also called nuclear U2AF35
- binding result [7]: no binding
